# According to the supplement of paper PMC10307832:
# Columns and labels:
# Assay in all cases: relative viability (nuclei count vs DMSO), 5 days (fraction); higher = more cells survive
# Apatinib + Pemetrexed = compound: N#CC1(c2ccc(NC(=O)c3cccnc3NCc3ccncc3)cc2)CCCC1 [Apatinib] + Nc1nc2[nH]cc(CCc3ccc(C(=O)N[C@@H](CCC(=O)O)C(=O)O)cc3)c2c(=O)[nH]1 [Pemetrexed] (partner 0.2 µM)
# Summary of the method: (§1)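 After 5 days of treatment, lung cancer cells in 1536-well plates were fixed and stained in a single step (final 0.05% Triton X-100, 1% formaldehyde, 1 ug/ml Hoechst) and their nuclei counted on 4× images. Treatment had been applied by pin tool the day after seeding as one drug alone or as a fixed anchor-drug dose with five library-drug doses (not always all listed) in √10 steps. Relative viability is the nuclei count of treated wells divided by that of vehicle wells, and values are medians of duplicate plates.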
# Apatinib + OSI-027 = compound: N#CC1(c2ccc(NC(=O)c3cccnc3NCc3ccncc3)cc2)CCCC1 [Apatinib] + COc1cccc2cc(-c3nc([C@H]4CC[C@H](C(=O)O)CC4)n4ncnc(N)c34)[nH]c12 [OSI-027] (partner 0.5 µM)
# Summary of the method: as §1
# Apatinib + Lapatinib = compound: N#CC1(c2ccc(NC(=O)c3cccnc3NCc3ccncc3)cc2)CCCC1 [Apatinib] + CS(=O)(=O)CCNCc1ccc(-c2ccc3ncnc(Nc4ccc(OCc5cccc(F)c5)c(Cl)c4)c3c2)o1 [Lapatinib] (partner 2 µM)
# Summary of the method: as §1
# Metformin + Foretinib = compound: CN(C)C(=N)NC(=N)N [Metformin] + COc1cc2c(Oc3ccc(NC(=O)C4(C(=O)Nc5ccc(F)cc5)CC4)cc3F)ccnc2cc1OCCCN1CCOCC1 [Foretinib] (partner 0.25 µM)
# Summary of the method: as §1
Cell Line,relative viability (Apatinib + Pemetrexed; first compound 0.08 µM),relative viability (Apatinib + Pemetrexed; first compound 0.253 µM),relative viability (Apatinib + Pemetrexed; first compound 0.8 µM),relative viability (Apatinib + Pemetrexed; first compound 2.53 µM),relative viability (Apatinib + Pemetrexed; first compound 8 µM),relative viability (Apatinib + OSI-027; first compound 0.08 µM),relative viability (Apatinib + OSI-027; first compound 0.253 µM),relative viability (Apatinib + OSI-027; first compound 0.8 µM),relative viability (Apatinib + OSI-027; first compound 2.53 µM),relative viability (Apatinib + OSI-027; first compound 8 µM),relative viability (Apatinib + Lapatinib; first compound 0.08 µM),relative viability (Apatinib + Lapatinib; first compound 0.253 µM),relative viability (Apatinib + Lapatinib; first compound 0.8 µM),relative viability (Apatinib + Lapatinib; first compound 2.53 µM),relative viability (Apatinib + Lapatinib; first compound 8 µM),relative viability (Metformin + Foretinib; first compound 10 µM),relative viability (Metformin + Foretinib; first compound 31.62 µM),relative viability (Metformin + Foretinib; first compound 100 µM),relative viability (Metformin + Foretinib; first compound 316.23 µM),relative viability (Metformin + Foretinib; first compound 1000 µM)
SW 1573,0.87,0.854,0.806,0.708,0.394,0.71,0.636,0.553,0.593,0.518,0.958,1.09,1.15,1.09,1.02,0.955,1.04,0.914,0.788,1.1
NCI-H2170,0.288,0.275,0.262,0.224,0.251,0.803,0.752,0.692,0.594,0.674,0.307,0.241,0.466,0.271,0.281,0.951,1.02,0.915,0.95,0.965
NCI-H1993,0.593,0.566,0.605,0.549,0.549,0.627,0.596,0.549,0.49,0.494,0.824,0.749,0.805,0.866,0.798,0.964,1.02,0.912,0.836,1.06
